The values below come from patent US4594329A, “CRF analogs” (The Salk Institute for Biological Studies, priority 1984, dated 1986).

The conditions of test [1]: in mammals; cited from earlier work.
In test [2] the test system is secretion of ACTH and β-endorphin. To be noted: in mammals; cited from earlier work.
The conditions of test [3]: rats; administered into the ventricles; cited from earlier work.
The test system of test [4] is cultured rat pituitary cells. Kind of test: secretion of ACTH and β-endorphin by cultured rat pituitary cells. To be noted: for stimulates the secretion of ACTH and β-END-LI: general procedure of Example III. Format: cell-based. Here is the method:
(§1) The synthetic peptide AHC and oCRF were examined for their effects on the secretion of ACTH and β-endorphin in vitro and was also in vivo. The potency of synthetic oCRF to stimulate the secretion of ACTH and β-endorphin by cultured rat pituitary cells was measured using the procedure as generally set forth in Endocrinology, 91, 562 (1972). […] In vivo testing is carried out using the general procedure set forth in C. Rivier et al., Science, 218, 377 (1982).

Test [5] in a line: lowering of blood pressure, in vivo testing. To be noted: for lowering of blood pressure: general procedure of Example III. Here is the method: as §1

Square brackets hold non-standard residues; d marks the D form. Peptide text beside a SMILES is read from it. hArg = N=C(N)NCCCC[C@H](N)C(=O)O; Nle = CCCC[C@H](N)C(=O)O; Orn = NCCC[C@H](N)C(=O)O

Consider `CC[C@H](C)[C@H](NC(=O)[C@@H](NC(=O)[C@H](CC(=O)O)NC(=O)[C@H](CC(C)C)NC(=O)[C@H](CC(C)C)NC(=O)[C@H](CC(C)C)NC(=O)[C@H](CCCNC(=N)N)NC(=O)[C@H](CC(N)=O)NC(=O)[C@H](CC(N)=O)NC(=O)[C@H](C)NC(=O)[C@H](C)NC(=O)[C@H](CCC(N)=O)NC(=O)[C@H](CCC(N)=O)NC(=O)[C@H](CCCCN)NC(=O)[C@H](CCC(=O)O)NC(=O)[C@H](CCCCN)NC(=O)[C@H](CCC(=O)O)NC(=O)[C@H](CCC(N)=O)NC(=O)[C@H](CCCCN)NC(=O)[C@H](CCC(=O)O)NC(=O)[C@@H](NC(=O)[C@H](CCC(=O)O)NC(=O)[C@@H](NC(=O)[C@H](CCSC)NC(=O)[C@H](CCCCN)NC(=O)[C@H](CCCNC(=N)N)NC(=O)[C@H](CC(C)C)NC(=O)[C@H](CC(C)C)NC(=O)[C@H](CCC(=O)O)NC(=O)[C@H](CC(C)C)NC(=O)[C@H](CO)NC(=O)[C@H](CC(C)C)NC(=O)[C@H](CC(=O)O)NC(=O)[C@@H](NC(=O)[C@H](CO)NC(=O)[C@@H](NC(=O)[C@@H]1CCCN1C(=O)[C@@H]1CCCN1C(=O)CNC(=O)[C@@H]1CCC(=O)N1)[C@@H](C)CC)[C@@H](C)CC)[C@@H](C)CC)[C@@H](C)CC)[C@@H](C)O)C(N)=O` [Sauvagine], for which, in test [1], the “biological activity in lowering blood pressure (reported)” value was “biological activity in lowering blood pressure in mammals”. In test [2], the “biological activity in stimulating the secretion of ACTH and β-endorphin (reported)” value is “stimulating the secretion of ACTH and β-endorphin”.

As to “CRF: corticotropin releasing factor, the hentetracontapeptide; species not stated at the place (H-SEEPPISLDLTFHLLREVLEMARAEQLAQQAHSNRKLMEII-NH2; ends and bridges not checked; UniProt P06850 154-194, looked up)”, in test [3], the “activity” value is on record as “increases activity” and the “learning performance” value was “improves learning performance”.

For `CCCC[C@H](NC(=O)[C@H](CCC(=O)O)NC(=O)[C@H](CC(C)C)NC(=O)[C@H](CCCC)NC(=O)[C@H](CCC(=O)O)NC(=O)[C@H](CCCNC(=N)N)NC(=O)[C@H](CC(C)C)NC(=O)[C@H](CC(C)C)NC(=O)[C@H](Cc1c[nH]cn1)NC(=O)[C@H](Cc1ccccc1)NC(=O)[C@@H](NC(=O)[C@H](CC(C)C)NC(=O)[C@H](CC(=O)O)NC(=O)[C@H](CC(C)C)NC(=O)[C@H](CO)NC(=O)[C@@H](NC(=O)[C@@H]1CCCN1C(=O)[C@@H]1CCCN1C(=O)[C@H](N)Cc1ccc(O)cc1)[C@@H](C)CC)[C@@H](C)O)C(=O)N[C@@H](C)C(=O)N[C@@H](CCCCN)C(=O)N[C@@H](C)C(=O)N[C@@H](CCC(=O)O)C(=O)N[C@@H](CCC(N)=O)C(=O)N[C@@H](CCC(=O)O)C(=O)N[C@@H](C)C(=O)N[C@@H](CCC(=O)O)C(=O)N[C@@H](CCC(N)=O)C(=O)N[C@@H](C)C(=O)N[C@@H](C)C(=O)N[C@@H](CC(C)C)C(=O)N[C@@H](CC(N)=O)C(=O)N[C@@H](CCCNC(=N)N)C(=O)N[C@@H](CC(C)C)C(=O)N[C@@H](CC(C)C)C(=O)N[C@@H](CC(C)C)C(=O)N[C@@H](CCC(=O)O)C(=O)N[C@@H](CCC(=O)O)C(=O)N[C@@H](C)C(N)=O` [[D-Tyr^3, Nle^18,21]-AHC(3-41)] (H-[dY]PPISLDLTFHLLRE[Nle]LE[Nle]AKAEQEAEQAALNRLLLEEA-NH2), the “stimulates the secretion of ACTH and β-END-LI” value (“stimulates the secretion” for short) in test [4] was “stimulates the secretion of ACTH and β-END-LI”. Also, the “lowering of blood pressure” value in test [5] was “very significant lowering of blood pressure”.

As to `CC[C@H](C)[C@H](NC(=O)[C@@H](NC(=O)[C@H](CCC(=O)O)NC(=O)[C@H](CC(C)C)NC(=O)[C@H](CC(C)C)NC(=O)[C@H](CCCCN)NC(=O)[C@H](CCCNC(=N)N)NC(=O)[C@H](CC(N)=O)NC(=O)[C@H](CO)NC(=O)[C@H](Cc1c[nH]cn1)NC(=O)[C@H](C)NC(=O)[C@H](CCC(N)=O)NC(=O)[C@H](CCC(=O)O)NC(=O)[C@H](C)NC(=O)[C@H](CC(C)C)NC(=O)[C@H](CCC(N)=O)NC(=O)[C@H](CCC(=O)O)NC(=O)[C@H](CCCN)NC(=O)[C@H](C)NC(=O)[C@H](CCSC)NC(=O)[C@H](CCC(=O)O)NC(=O)[C@H](CC(C)C)NC(=O)[C@@H](NC(=O)[C@H](CCC(=O)O)NC(=O)[C@H](CCCNC(=N)N)NC(=O)[C@H](CC(C)C)NC(=O)[C@H](CC(C)C)NC(=O)[C@H](Cc1c[nH]cn1)NC(=O)[C@H](Cc1ccccc1)NC(=O)[C@@H](NC(=O)[C@H](CC(C)C)NC(=O)[C@H](CC(=O)O)NC(=O)[C@H](CC(C)C)NC(=O)[C@H](CO)NC(=O)[C@@H](NC(=O)[C@@H]1CCCN1C(=O)[C@@H]1CCCN1C(=O)[C@H](CCC(=O)O)NC(=O)[C@H](CCC(N)=O)NC(=O)[C@@H](N)CO)[C@@H](C)CC)[C@@H](C)O)C(C)C)[C@@H](C)CC)C(N)=O` [[Gln^2, Orn^23, Glu^29, Leu^38]-rCRF] (H-SQEPPISLDLTFHLLREVLEMA[Orn]EQLAEQAHSNRKLLEII-NH2), the “stimulates the secretion” value in test [4] is “stimulates the secretion of ACTH and β-END-LI”. Also, the “lowering of blood pressure” value in test [5] is on record as “very significant lowering of blood pressure”.

Regarding “Ac-PPISLDLTFHLLREVLEMARAEQLAEQAHSNRKYMEEI-NH2”, the “stimulates the secretion” value in test [4] was “stimulates the secretion of ACTH and β-END-LI”. Also, the “lowering of blood pressure compared with rCRF” value in test [5] (comparison with rCRF) is on record as “to a greater extent than rCRF”. In test [5], the “lowering of blood pressure” value is given as “very significant lowering of blood pressure”.

For “H-SQEPPISLDLTFHLLRE[Nle]LE[Nle]TKADQLRQQAHSNRKLLDIA-NH2 [[Nle^18,21,Arg^28]-oCRF]”, the “stimulates the secretion” value in test [4] was “stimulates the secretion of ACTH and β-END-LI”. Further, the “lowering of blood pressure” value in test [5] is reported as “very significant lowering of blood pressure”.

In the case of “H-SQE[dP]PISLDLTFHLLRE[Nle]LE[Nle]AKAEQEAEQAALNRLLLEEA-NH2 [[D-Pro^4, Nle^18,21]-AHC]”, the “stimulates the secretion” value in test [4] is “stimulates the secretion of ACTH and β-END-LI”. For the same compound, the “lowering of blood pressure” value in test [5] is “very significant lowering of blood pressure”.

On to `CCCC[C@H](NC(=O)[C@H](CCC(=O)O)NC(=O)[C@H](CC(C)C)NC(=O)[C@@H](NC(=O)[C@H](CCC(=O)O)NC(=O)[C@H](CCCNC(=N)N)NC(=O)[C@H](CC(C)C)NC(=O)[C@H](CC(C)C)NC(=O)[C@H](Cc1c[nH]cn1)NC(=O)[C@H](Cc1ccccc1)NC(=O)[C@@H](NC(=O)[C@H](CC(C)C)NC(=O)[C@H](CC(=O)O)NC(=O)[C@H](CC(C)C)NC(=O)[C@H](CO)NC(=O)[C@@H](NC(=O)[C@@H]1CCCN1C(=O)[C@H]1CCCN1)[C@@H](C)CC)[C@@H](C)O)C(C)C)C(=O)N[C@@H](C)C(=O)N[C@@H](CCCNC(=N)N)C(=O)N[C@@H](C)C(=O)N[C@@H](CCC(=O)O)C(=O)N[C@@H](CCC(N)=O)C(=O)N[C@@H](CC(C)C)C(=O)N[C@@H](C)C(=O)N[C@@H](CCC(N)=O)C(=O)N[C@@H](CCC(N)=O)C(=O)N[C@@H](C)C(=O)N[C@@H](Cc1c[nH]cn1)C(=O)N[C@@H](CO)C(=O)N[C@@H](CC(N)=O)C(=O)N[C@@H](CCCNC(=N)N)C(=O)N[C@@H](CCCCN)C(=O)N[C@@H](CC(C)C)C(=O)N[C@@H](CCSC)C(=O)N[C@@H](CCC(=O)O)C(=O)N[C@H](C(=O)N[C@H](C(N)=O)[C@@H](C)CC)[C@@H](C)CC` [[D-Pro^4,Nle^21,38]-rCRF(4-41)] (H-[dP]PISLDLTFHLLREVLE[Nle]ARAEQLAQQAHSNRKLMEII-NH2), for which, in test [4] (comparison with oCRF), the “secretion of ACTH and β-END-LI compared with oCRF” value is reported as “in an amount greater than oCRF”. For the same compound, the “lowering of blood pressure” value in test [5] is reported as “very significant lowering of blood pressure”.

For the compound “H-SEEPPISLDLTFHLLREVLE[Nle]A[hArg]AEQLAQQAHLNRKLMEE[Nle]-NH2”, the “stimulates the secretion” value in test [4] was “stimulates the secretion of ACTH and β-END-LI”. In addition, the “lowering of blood pressure” value in test [5] is recorded as “very significant lowering of blood pressure”.

`CCCC[C@H](NC(=O)[C@H](CCC(=O)O)NC(=O)[C@H](CC(C)C)NC(=O)[C@H](CCCC)NC(=O)[C@H](CCC(=O)O)NC(=O)[C@H](CCCNC(=N)N)NC(=O)[C@H](CC(C)C)NC(=O)[C@H](CC(C)C)NC(=O)[C@H](Cc1c[nH]cn1)NC(=O)[C@H](Cc1ccccc1)NC(=O)[C@@H](NC(=O)[C@H](CC(C)C)NC(=O)[C@H](CC(=O)O)NC(=O)[C@H](CC(C)C)NC(=O)[C@H](CO)NC(=O)[C@@H](N)[C@@H](C)CC)[C@@H](C)O)C(=O)N[C@@H](C)C(=O)N[C@@H](CCCCN)C(=O)N[C@@H](C)C(=O)N[C@@H](CCC(=O)O)C(=O)N[C@@H](CCC(N)=O)C(=O)N[C@@H](CCC(=O)O)C(=O)N[C@@H](C)C(=O)N[C@@H](CCC(=O)O)C(=O)N[C@@H](CCC(N)=O)C(=O)N[C@@H](C)C(=O)N[C@@H](C)C(=O)N[C@@H](CC(C)C)C(=O)N[C@@H](CC(N)=O)C(=O)N[C@@H](CCCNC(=N)N)C(=O)N[C@@H](CCCNC(=N)N)C(=O)N[C@@H](CC(C)C)C(=O)N[C@@H](CC(C)C)C(=O)N[C@@H](CCC(=O)O)C(=O)N[C@@H](CCC(=O)O)C(=O)N[C@@H](C)C(N)=O` [[Nle^18,21,Arg^36]-AHC(6-41)] (H-ISLDLTFHLLRE[Nle]LE[Nle]AKAEQEAEQAALNRRLLEEA-NH2): the “stimulates the secretion” value in test [4] is “stimulates the secretion of ACTH and β-END-Li”. The “lowering of blood pressure” value in test [5] is on record as “very significant lowering of blood pressure”.
